Marks after values point to notes of the source that are not given here.
How the values were obtained:
human lymphocytes = test: Metabolism of hyperpolarized substrates in intact human lymphocytes; type: cell-based; details: for Metabolic conversion (a.u.) Lymphocytes: 20 million cells, maximum signal of product 1-13C lactate
Method: Human lymphocytes were purified from whole blood. Whole blood samples were drawn from a healthy volunteer into heparinised venous blood collection tubes (Venosafe vacumtubes from Terumo). For each experiment the blood was purified freshly: Three and a half 10 mL tubes of blood were pooled in each of four 50 mL Leucosep (Greiner) tubes prepared with 15 mL Histopaque 1077 (Sigma). The Leucosep tubes were spun for 15 min at 800× g at 24 C. The plasma was removed and the white blood cells were transferred to a 50 mL falcon tube by decanting and diluted 1:2 in PBS-Mg—Ca for a total volume of 50 mL. The cells were sedimented by centrifugation at 250×g for 60 min. Diluting with trypan blue and counting in hemocytometer determined the total number of lymphocytes before sedimentation. All cells were viable and the total number of cells in each cell batch was approx. 60 million. The lymphocytes were redissolved to a concentration of 20 million cells in 500 μl 40 mM phosphate buffer pH 7.3.
(§1) The cell suspensions were transferred to a 10 mm NMR tube and placed with connecting tubing in a 14.1 T magnet at 37 C.
(§2) Finland radical, carboxylic acid form (1 mg, 0.65 μmol) was dissolved in 1,3-^13C2 ethyl acetoacetate (50 μl, 51 mg, […]). To the solution was added a DMSO solution of the gadolinium complex ([alfa1,alfa4,alfa7-tris[(phenylmethoxy)methyl]-1,4,7,10-tetraazacyclododecane-1,4,7,10-tetraacetato(4-)]gadolinate(1-)]hydrogen) (0.8 mg of a 100 μmol/g solution). The concentration of radical and gadolinium were 13 mM and 1.6 mM respectively. 20 μmol of this composition was hyperpolarised under DNP conditions at 1.2 K in a 3.35 T magnetic field under irradiation with microwave (93.900 GHz). The polarization build-up constant was 750 s. The solid-state polarization was approx. 20%.
(§3) The hyperpolarized sample was dissolved in 5 ml phosphate buffer (40 mM, pH 7.3). The pH after dissolution was 7.3. Following dissolution, 1 ml of the substrate mixture was injected into 20 million cells in suspension. A series of 20 degree pulses every 2 s (56 scans in total) was acquired. The acquisition was started just before injection of the hyperpolarized substrate. Data are presented metabolic signal build-up as a function of time and as maximum metabolite signal.
(§4) The cells were grown and harvested or purified as described in example 3.10. The experiments were performed with single substrates administered to 20 million MCF-7 cells, PC-3 cells or lymphocytes dissolved in a volume of 500 μl 40 mM phosphate buffer pH 7.3. The cell suspensions were transferred to a 10 mm NMR tube and placed with connecting tubing in a 14.1 T magnet at 37° C.
(§5) ^13C6-d7-glucose (22.8 mg, 0.118 mmol) was dissolved in polarization medium (25.0 mg). […]

[1] = tested on: breast cancer cells (MCF-7) in the background of human lymphocytes; test: Co-polarized substrates in model voxels of breast cancer cells in lymphocyte background; type: cell-based; details: for Metabolic conversion (a.u) 50% cancer cells: 1 million MCF-7 cells and 20 million lymphocytes; for Metabolic conversion (a.u) 100% cancer cells: 2 million MCF-7 cells, 2x2x2 voxel model; for Metabolic conversion (a.u) 0% cancer cells: 40 million lymphocytes
Text: The real time metabolism of breast cancer cells was compared with the metabolism of the lymph node background in model systems containing either only cancer cells (100% cancer), only lymphocytes (0% cancer) or a combination of the two cell types (50% cancer) in cellular concentrations expected to be present in a spatially resolved lymph node containing a macro metastasis. In the clinic, the interest is focused on macro metastasis since these are statistically those, which indicate aggressive cancers (P. Blumencranz, Surg Oncol Clin N Am 20 (2011) 467-485).
The model system was designed assuming a macro metastasis, which is defined to have a minimum diameter of 2 mm (P J. Diest et al., (2010) Breast disease 31: 65-81). In a 2×2×2 mm voxel, 50% of the volume will be cancer cells assuming that the macro metastasis is shaped as a sphere. Three experimental systems were established and carried out: 1) 2 million MCF-7 cells (corresponding to 100% cancer cells in a 2×2×2 voxel), 2) 1 million MCF-7 cells and 20 million lymphocytes (corresponding to 50% cancer cells in a 2×2×2 voxel) and 3) 40 million lymphocytes (corresponding to 0% cancer cells in a 2×2×2 voxel). The cells were grown and harvested or purified as described in example 3.10. The DNP preparations of 1-^13C-pyruvate and 1,3-^13C2-ethyl acetoacetate were made as described in examples 3.10. and 3.11. The substrates (20 μmol each) were co-polarized. The polarization, dissolution and administration to the cells were made as in example 3.11.

[2] = tested on: human breast cancer cells (MCF-7); test: Metabolism of hyperpolarized substrates in intact human breast cancer cells; type: cell-based; details: for Metabolic conversion (a.u.) MCF-7 cells: 20 million cells, maximum signal of product 1-13C lactate; for conversion in breast cancer cells over lymphocytes: quantified by cell number
Method: (§6) Human breast cancer cells (MCF-7) and human prostate cancer cells (PC-3) were grown in RPMI medium with 10% FBS and antibiotics. The cells were at confluence harvested by trypsination and washed once with 5 ml PBS. They were spun down and re-dissolved to a concentration of 20 million cells in 500 μl 40 mM phosphate buffer pH 7.3.
as §1, §2, §3, §4
^13C6-d7-glucose (22.8 mg, 0.118 mmol) was dissolved in polarization medium (25.0 mg). The polarization medium was made of Ox063 radical (19.1 mg, 13.3 μmol) was dissolved in 465 μl water. To this solution was added Gadoteridol (40 mg of 50 μmol/g solution in water). Concentrations: [Ox063]=26.5 mM, [Gd]=4 mM. The total weight of the glucose preparation was: 47.8 mg yielding 2.47 mmol glucose/g preparation.
1-^13C pyruvic acid (55 μl, 70.0 mg) was mixed with Finland radical, sodium salt (1.5 mg, 0.94 μmol) and Gadoteridol (2.1 mg of 50 μmol/g solution in water). Concentrations of radical and Gadolinium were: 17 mM; 2 mM.
20 μmol of either substrate was polarized in a 3.3 T polarizer operating at […] and approx. 1.2 K. Following 45 minutes polarization the samples were dissolved in 5 ml 40 mM phosphate buffer pH 7.3. In the experiments with pyruvic acid an equimolar addition of NaOH was added to neutralize the acid. 2 ml of the dissolved substrate mixture was injected into the cells in suspension. A series of 20 degree pulses every 2 s (56 scans in total) was acquired. The acquisition was started just before injection of the hyperpolarized substrate. Data are presented as maximum metabolite signals, hyperpolarized 1-^13C lactate produced from either glucose or pyruvate.

[3] = tested on: human prostate cancer cells (PC-3); test: Metabolism of hyperpolarized substrates in intact human prostate cancer cells; type: cell-based; details: for Metabolic conversion (a.u.) PC-3 cells: 20 million cells, maximum signal of product 1-13C lactate
Method: as §6, §1, §2, §3, §4, §5

[4] = tested on: breast cancer cells (MDA-MB-231); test: In cell 13C-NMR detection of 1,4-13C2-malate using 1,4-13C2-fumarate as hyperpolarized marker; type: cell-based, human; details: 5 million cells; 30 s; normalized to soluble protein; vs 184B5; FIG. 2
Method: Step 1: 1,4-^13C2 Fumaric acid (274 mg, 2.32 mmol) was dissolved in a DMSO solution (1660 μl) of trityl radical (Tris(8-carboxy-2,2,6,6-(tetra(methoxyethyl)-benzo-[1,2-4,5′]-bis-(1,3)-dithiole-4-yl)-methyl sodium salt) (19 mM) and gadolinium trimeric complex (Gadolinium chelate of 1,3,5-tris-(N-(DO3A-acetmido)-N-methyl-4-amino-2-methylphenyl)-[1,3,5]triazinane-2,4,6-trione)) (0.8 mM). A sample of this solution (32.5 mg) was hyperpolarized for 60 minutes, at 93.900 GHz and 1.3 K. The sample was dissolved in phosphate buffer (4 ml, pH 7.3, 40 mM) with addition of sodium hydroxide (22 μl, 12M) to neutralize the acid in the hyperpolarized sample.
Step 2: 100 μl of hyperpolarized sodium 1,4-^13C2-fumarate from step 1 was mixed into 500 μl RPMI medium containing 5 million breast cancer cells (MDA-MB-231, human epithelial breast cancer cell line) in a 5 mm NMR tube and placed in a 9.4 T NMR magnet. Signals of 1,4-^13C-malate were detected by acquiring a set of ^13C-MR spectra every 2 s with a 15 degree RF pulse. The amount of 1,4-^13C-malate was calculated 30 s after mixing the hyperpolarized sodium 1,4-^13C2-fumarate into the medium containing cells. Further, the amount of soluble protein in the MDA-MB-231 cells was determined, and the amount of 1,4-^13C-malate was normalized to the protein amount. […]

[5] = tested on: prostate cancer cells (PC-3); test: In cell 13C-NMR detection of 1-13C-lactate using 1-13C-pyruvate as hyperpolarized marker; type: cell-based, human; details: 5 million cells; PC-3 vs PNT-1A; FIG. 1
Method: Step 1: 1-^13C pyruvic acid (1286 mg, 14.4 mmol) was mixed with 25 mg of trityl radical (Tris(8-carboxy-2,2,6,6-(tetra(methoxyethyl)-benzo-[1,2-4,5′]-bis-(1,3)-dithiole-4-yl)-methyl sodium salt) (15 mM) and gadolinium trimeric complex (Gadolinium chelate of 1,3,5-tris-(N-(DO3A-acetmido)-N-methyl-4-amino-2-methylphenyl)-[1,3,5]triazinane-2,4,6-trione)) (0.6 mM). A sample of this solution (9.2 mg) was hyperpolarized for 60 minutes, at 93.900 GHz and 1.3 K. The sample was dissolved in phosphate buffer (4 ml, pH 7.3, 40 mM) with addition of sodium hydroxide (11 μl, 12M) to neutralize the acid in the hyperpolarized sample. The hyperpolarized solution was further diluted with tempered (37° C.) buffer to 30 ml.
Step 2: 500 μl of hyperpolarized sodium 1-^13C-pyruvate from step 1 was mixed into 5 million prostate cancer cells (PC-3, human prostate cell adenocarcinoma) in a 10 mm NMR tube and placed in a 9.4 T NMR magnet. Signals of 1-^13C-pyruvate and 1-^13C-lactate were detected by acquiring a set of ^13C-MR spectra every 3 s with a 15 degree RF pulse and the signal from 1-^13C-lactate was quantified.
Using an identical protocol as outlined above, a second study was performed in healthy prostate cells (PNT-1A, immortalized healthy prostate cells).

SMILES | hydrolysis to 1,3-13C2 acetoacetate (human lymphocytes; 20 million intact lymphocytes, FIG. 4) | metabolic conversion, healthy lymphocytes over cancer cells (human lymphocytes; cancer cells quantified by limit-of-detection) | Metabolic conversion (a.u) 50% cancer cells [1] [a.u.] | Metabolic conversion (a.u) 100% cancer cells [1] | Metabolic conversion (a.u) 0% cancer cells [1] [a.u.] | hydrolysis to 1,3-13C2 acetoacetate ([2]; 20 million intact MCF-7 cells, FIG. 4) | hydrolysis to 1,3-13C2 acetoacetate ([3]; 20 million intact PC-3 cells, FIG. 4) | concentration of 1,4-13C-malate in MDA-MB-231 cells compared to healthy breast cells [4] | Metabolic conversion (a.u.) Lymphocytes (human lymphocytes) [a.u.] | Metabolic conversion (a.u.) MCF-7 cells [2] [a.u.] | conversion in breast cancer cells over lymphocytes [2] [times] | Metabolic conversion (a.u.) PC-3 cells [3] [a.u.] | 1-13C-lactate signal in PC-3 cells compared to non-cancerous prostate cells [5]
CCO[13C](=O)C[13C](C)=O [1,3-^13C2 ethyl acetoacetate] | hydrolysed | approx. 33 times | 632 | < 14* a.u. | 1027 | no conversion can be detected | no conversion can be detected |  |  |  |  |  | 
O=[13C](O)/C=C/[13C](=O)O [1,4-^13C2-fumarate] |  |  |  |  |  |  |  | significantly higher |  |  |  |  | 
CC(=O)[13C](=O)O [1-^13C-pyruvate] |  |  | 1853 | 337 a.u. | 2620 |  |  |  | 40 | 1000 | 50 | 200 | increased
OC[C@H]1OC(O)[C@H](O)[C@@H](O)[C@@H]1O (some centres unmarked) [^13C6-d7-glucose] |  |  |  |  |  |  |  |  | 10 | 500 | 50 | 200 | 
